Some test systems named below: ACHN renal; BT-549 breast; COLO 205 colon; HCT-116 colon; M14 melanoma; MOLT-4 leukemia; SF-295 CNS; SN12C renal; SNB-19 CNS; UO-31 renal.
Assay in all cases: NCI anticancer screen, dose series, 48 h

The structures appear in SMILES notation.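 1) Cells in 96-well plates. 2) Compound, 48 h, 5 concentrations. 3) Linear interpolation between surrounding doses. 4) Unreached endpoint = highest concentration. TGI: concentration producing complete growth inhibition.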

Turning to `C[N+]12C=CC=C1C(N1CCCC1)c1scc(-c3ccc(Br)cc3)c12` (stereo not given), the TGI in the assay with ACHN renal was greater than 100 µM; in the assay with BT-549 breast, 17.7 µM; in the assay on COLO 205 colon, 39.8 µM; in the assay on HCT-116 colon, greater than 100 µM; in the assay with M14 melanoma, greater than 66.4 µM; with MOLT-4 leukemia it was greater than 65.3 µM. Further, the TGI with SF-295 CNS was greater than 100 µM; with SN12C renal, greater than 35.7 µM; in the assay on SNB-19 CNS, 39.2 µM; in the assay on UO-31 renal, greater than 100 µM.

Consider `C[C@]12c3c4cc(NC(=O)C(=O)NCc5ccc(-c6ccccn6)nc5)cc3Oc3cc(NC(=O)C(=O)NCc5ccc(-c6ccccn6)nc5)cc(c31)OC1C=C(NC(=O)C(=O)NCc3ccc(-c5ccccn5)nc3)C=C(O4)C12` (stereo not given in full), for which the TGI in the assay on ACHN renal was 59.2 µM; in the assay with BT-549 breast it was greater than 100 µM; with COLO 205 colon, greater than 100 µM; in the assay on HCT-116 colon it was greater than 100 µM; in the assay on M14 melanoma, greater than 100 µM; with MOLT-4 leukemia, greater than 100 µM. Further, the TGI with SF-295 CNS is greater than 100 µM; with SN12C renal, greater than 100 µM; in the assay with SNB-19 CNS it was greater than 100 µM; in the assay on UO-31 renal, 68.6 µM.

For the molecule `COc1ccc(C(C)NNC(=O)c2ccncc2)cc1OC` (stereo not given), the TGI in the assay with ACHN renal, in the assay with BT-549 breast, in the assay on COLO 205 colon, with HCT-116 colon, in the assay on M14 melanoma and in the assay with MOLT-4 leukemia was greater than 100 µM each time. Further, the TGI with SF-295 CNS, in the assay on SN12C renal, with SNB-19 CNS and with UO-31 renal was greater than 100 µM in each case.

For `N#C/C(N)=C(\C#N)NC=NCCO`, the TGI in the assay with ACHN renal, with BT-549 breast, with COLO 205 colon, with HCT-116 colon, with M14 melanoma and in the assay on MOLT-4 leukemia was greater than 100 µM each time. Moreover, the TGI in the assay on SF-295 CNS, with SN12C renal, with SNB-19 CNS and in the assay with UO-31 renal was greater than 100 µM throughout.

On to `COc1cc(S(=O)(=O)Nc2ccc(-c3csc(N4C(=O)CSC4c4cccc(Oc5ccccc5)c4)n3)cc2)ccc1Cl` (stereo not given), for which the TGI with ACHN renal, in the assay on BT-549 breast, in the assay on COLO 205 colon, with HCT-116 colon, in the assay with M14 melanoma and in the assay with MOLT-4 leukemia was greater than 100 µM each time. The TGI in the assay with SF-295 CNS, with SN12C renal, in the assay with SNB-19 CNS and in the assay on UO-31 renal was greater than 100 µM throughout.

With `COc1ccc(C2c3cc4c(cc3OC3(OC)COC(=O)C23)OCO4)c(OC)c1` (stereo not given), the TGI in the assay on ACHN renal was greater than 100 µM; in the assay on BT-549 breast it was greater than 100 µM; in the assay on COLO 205 colon, 51.7 µM; in the assay with HCT-116 colon, greater than 90.7 µM; with M14 melanoma, 25.8 µM; in the assay on MOLT-4 leukemia, 71.2 µM. The TGI in the assay with SF-295 CNS is 98.9 µM; in the assay with SN12C renal, greater than 100 µM; in the assay with SNB-19 CNS, greater than 100 µM; with UO-31 renal, greater than 100 µM.

For the molecule `CC(C)=C[C@H]1C[C@H](C)[C@H]2CC[C@H](C)c3c2c1c(C)c1ncoc31`, the TGI came out at 32.7 µM in the assay on ACHN renal; 36.3 µM in the assay on BT-549 breast; 33.6 µM in the assay on COLO 205 colon; 33.6 µM in the assay with HCT-116 colon; 29.3 µM in the assay with M14 melanoma; 32.3 µM in the assay on MOLT-4 leukemia. Moreover, the TGI worked out at 31.2 µM in the assay with SF-295 CNS, 35.6 µM in the assay with SN12C renal, 32.3 µM with SNB-19 CNS and 31.5 µM with UO-31 renal.

Consider `Nc1ncc2c(n1)-c1ccccc1OC2N1CCCCC1` (stereo not given), for which the TGI in the assay on ACHN renal, with BT-549 breast, in the assay with COLO 205 colon, with HCT-116 colon, in the assay on M14 melanoma and in the assay on MOLT-4 leukemia was greater than 100 µM each time. For the same molecule, the TGI in the assay with SF-295 CNS, with SN12C renal, with SNB-19 CNS and in the assay on UO-31 renal was greater than 100 µM throughout.

Turning to `COc1ccc(NC(=S)c2ccc(CN3CCCCC3)s2)cc1`, the TGI with ACHN renal was greater than 100 µM; with BT-549 breast, 44 µM; with COLO 205 colon it was 30.8 µM; with HCT-116 colon it was 35.6 µM; with M14 melanoma, 35.4 µM; with MOLT-4 leukemia, 61.9 µM. Moreover, the TGI in the assay with SF-295 CNS is 38.1 µM; with SN12C renal, greater than 100 µM; in the assay with SNB-19 CNS, 43.9 µM; in the assay with UO-31 renal it was 35.7 µM.

With `O=c1[nH]c(=O)n(C2COC(CO)C2O)cc1F` (stereo not given), the TGI with ACHN renal, in the assay on BT-549 breast, in the assay on COLO 205 colon, in the assay on HCT-116 colon, in the assay on M14 melanoma and in the assay on MOLT-4 leukemia was greater than 100 µM in each case. For the same molecule, the TGI in the assay on SF-295 CNS, in the assay on SN12C renal, in the assay on SNB-19 CNS and in the assay on UO-31 renal was greater than 100 µM each time.

Take `Cc1nn(C(=O)Cc2ccccc2)c2c1C(c1ccccc1)SC(N)=N2` (stereo not given): the TGI in the assay on ACHN renal, in the assay on BT-549 breast, in the assay on COLO 205 colon, in the assay on HCT-116 colon, in the assay with M14 melanoma and in the assay with MOLT-4 leukemia was greater than 100 µM each time. The TGI with SF-295 CNS, in the assay on SN12C renal, in the assay on SNB-19 CNS and with UO-31 renal was greater than 100 µM throughout.

Take `COc1ccc2oc3c(C)cc4c(OC)nnc(OC)c4c3c2c1`: the TGI in the assay with ACHN renal was greater than 100 µM; in the assay with BT-549 breast, greater than 100 µM; with COLO 205 colon it was greater than 100 µM; with HCT-116 colon it was 6.55 µM; with M14 melanoma, greater than 100 µM; in the assay on MOLT-4 leukemia, greater than 100 µM. Further, the TGI in the assay on SF-295 CNS, in the assay with SN12C renal, with SNB-19 CNS and with UO-31 renal was greater than 100 µM each time.

As to `CC(C)C(NC(=O)Oc1ccccc1)C(=O)NC1c2c(Br)sc(Br)c2C(=O)C1O` (stereo not given), the TGI in the assay on ACHN renal was 10.2 µM; in the assay on BT-549 breast it was 8.16 µM; in the assay with COLO 205 colon, 14.4 µM; in the assay on HCT-116 colon, 7.34 µM; with M14 melanoma it was 11.4 µM; in the assay on MOLT-4 leukemia, greater than 25 µM. Also, the TGI in the assay on SF-295 CNS is greater than 25 µM; with SN12C renal it was 10.8 µM; in the assay on SNB-19 CNS it was 10.4 µM; in the assay with UO-31 renal, greater than 25 µM.

For `N=c1oc2ccccc2cc1C(=O)NC12CC3CC(CC(C3)C1)C2`, the TGI was 31.4 µM in the assay on ACHN renal; 50.6 µM with BT-549 breast; 32.7 µM with COLO 205 colon; 71.1 µM with HCT-116 colon; greater than 100 µM with M14 melanoma; 10.2 µM in the assay with MOLT-4 leukemia. Besides, the TGI in the assay with SF-295 CNS was 67.4 µM; in the assay on SN12C renal, greater than 100 µM; in the assay with SNB-19 CNS, 80.5 µM; in the assay on UO-31 renal it was 0.471 µM.

The values above are taken from PubChem BioAssay (NCI).
